Source: patent US20240002365A1, “PYRIDAZINE AND 1,2,4-TRIAZINE DERIVATIVES AS FGFR KINASE INHIBITORS” (BETA PHARMA, INC., priority 2020, published 2024)

Molecular target: FGFR1 (Homo sapiens (Human), UniProt P11362)
Experiment: RBC NanoBRET Assay for Target Engagement in HEK293 cells transfected with FGFR1-NanoLuc Fusion vector
Type: cell-based
Conditions: 1 hour, tracer K5 1 μM
Experimental: Cellular Assay. The RBC NanoBRET Assay for Target Engagement was performed by Reaction Biology Corporation, 1 Great Valley Parkway, Suite 2 Malvern, PA 19355, USA. The assay was conducted in HEK293 cells transiently transfected with FGFR1-NanoLuc Fusion vector. The HEK293 cells (ATCC) were transfected with 1 μg of FGFR1-NanoLuc Fusion vector in 384-well format and the transfected cells were subsequently treated with the test compounds (starting at 10 μM, 10-dose with 3-fold dilution) for 1 hour using CTx-0294885 as the reference standard and K5 (1 μM) was used as the tracer. FGFR1 target engagement was measured and the curve fits were performed only when % NanoBret signal at the highest concentration of compounds was less than 55%.

Chain of FGFR1 (P11362 22-822): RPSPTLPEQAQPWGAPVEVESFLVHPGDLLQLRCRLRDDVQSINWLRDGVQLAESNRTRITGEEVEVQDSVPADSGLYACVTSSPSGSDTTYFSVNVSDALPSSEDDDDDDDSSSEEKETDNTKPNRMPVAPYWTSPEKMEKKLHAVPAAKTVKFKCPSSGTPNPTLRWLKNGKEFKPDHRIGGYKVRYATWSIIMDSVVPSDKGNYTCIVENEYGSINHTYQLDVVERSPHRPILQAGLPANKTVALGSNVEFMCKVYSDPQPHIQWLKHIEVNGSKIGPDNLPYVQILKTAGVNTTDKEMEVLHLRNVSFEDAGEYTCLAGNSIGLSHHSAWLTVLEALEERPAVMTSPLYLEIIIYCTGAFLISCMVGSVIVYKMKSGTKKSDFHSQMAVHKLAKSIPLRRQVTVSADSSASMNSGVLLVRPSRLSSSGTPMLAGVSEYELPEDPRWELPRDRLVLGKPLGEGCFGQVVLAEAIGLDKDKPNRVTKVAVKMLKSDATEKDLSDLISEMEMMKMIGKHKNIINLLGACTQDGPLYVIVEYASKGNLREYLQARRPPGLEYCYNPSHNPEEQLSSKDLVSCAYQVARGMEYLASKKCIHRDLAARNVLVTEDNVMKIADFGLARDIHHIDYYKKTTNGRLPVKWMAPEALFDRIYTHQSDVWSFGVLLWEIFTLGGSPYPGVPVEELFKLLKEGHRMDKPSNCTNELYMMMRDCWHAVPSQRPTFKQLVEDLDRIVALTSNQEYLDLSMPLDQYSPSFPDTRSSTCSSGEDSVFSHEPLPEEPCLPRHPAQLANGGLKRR

IC50: 35 nM
SMILES: CNC(=O)c1ccccc1Nc1nc(Nc2ccc(N3CCNCC3)cc2)ncc1Cl [CTx-0294885, reference compound]
